Source: PubChem BioAssay (NCI)
Values joined by “and” are separate entries in the source; they are usually repeats but may differ in a detail not shown here. Equal entries are not always repeated.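 48-hour exposure; five concentrations; linearly interpolated endpoints. Abbreviation: GI50, concentration required for 50% inhibition of growth. Definition used: TGI = concentration required for complete inhibition of growth.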

What was measured:
Assay in all cases: DTP human tumour cell line panel, 48 h
NCI-H460 lung = system: NCI-H460 lung
MDA-MB-435 = system: MDA-MB-435
NCI-H226 lung = system: NCI-H226 lung
OVCAR-8 ovarian = system: OVCAR-8 ovarian
RPMI-8226 leukemia = system: RPMI-8226 leukemia
MCF7 breast = system: MCF7 breast
BT-549 breast = system: BT-549 breast
SNB-75 CNS = system: SNB-75 CNS
786-0 renal = system: 786-0 renal
HCC-2998 colon = system: HCC-2998 colon

| Structure (SMILES) | TGI (NCI-H460 lung) | TGI (MDA-MB-435) [µM] | TGI (NCI-H226 lung) | TGI (OVCAR-8 ovarian) [µM] | TGI (RPMI-8226 leukemia) [µM] | TGI (MCF7 breast) [µM] | TGI (BT-549 breast) [µM] | TGI (SNB-75 CNS) [µM] | TGI (786-0 renal) [µM] | TGI (HCC-2998 colon) [µM] | GI50 (NCI-H460 lung) [µM] | GI50 (NCI-H226 lung) | GI50 (HCC-2998 colon) [µM] | GI50 (RPMI-8226 leukemia) | GI50 (MCF7 breast) [µM] | GI50 (SNB-75 CNS) | GI50 (MDA-MB-435) [µM] | GI50 (OVCAR-8 ovarian) [µM] | GI50 (BT-549 breast) [µM] |
| --- | --- | --- | --- | --- | --- | --- | --- | --- | --- | --- | --- | --- | --- | --- | --- | --- | --- | --- | --- |
| O=C(NCCCCCCO)c1cccc2cc3ccccc3nc12 | 39 µM | 47.3 | 35.3 µM | > 100 | 47.3 | 39.3 | 33.2 | 37.3 | 36.2 | – | – | – | – | – | – | – | – | – | – |
| CC(C)(Cc1ccccc1)N1C(=O)N1C(C)(C)Cc1ccccc1 | > 100 µM | > 100 | 46 µM | > 100 | 38.5 | > 100 | > 100 | > 100 | 56.4 | > 100 | – | – | – | – | – | – | – | – | – |
| COC(=O)[C@@H]1C=C[C@H](NC(C)=O)C1 | > 100 µM | > 100 | > 100 µM | > 100 | > 100 | > 100 | > 100 | > 100 | – | > 100 | – | – | – | – | – | – | – | – | – |
| O=c1oc2cccnc2n1CCCCN1CCN(c2ccccc2)CC1 | > 100 µM | > 100 | – | > 100 | > 100 | > 100 | – | – | > 100 | > 100 | – | – | – | – | – | – | – | – | – |
| CC(=O)NC(=O)NC1=NCCC(=O)N1CCc1c[nH]c2ccccc12 | > 100 µM | > 100 | > 100 µM | > 100 | > 100 | > 100 | – | – | > 100 | > 100 | – | – | – | – | – | – | – | – | – |
| C=CCc1ccccc1C1CC2(C(=O)OC)OC1C(C(=O)OC)=C2C(=O)OC (centres undefined) | > 10 µM | > 10 | > 10 µM | > 10 | > 10 | > 10 | > 10 | – | > 10 | > 10 | – | – | – | – | – | – | – | – | – |
| NNC(=O)Cn1ccnn1 | > 100 µM | > 100 | – | > 100 | > 100 | > 100 | > 100 | > 100 | > 100 | > 100 | – | – | – | – | – | – | – | – | – |
| O=c1c2cc(Br)ccc2ncn1COCc1ccccc1 | – | > 100 | > 1 µM | > 1 | – | > 100 | – | – | > 100 | > 100 | – | – | – | – | – | – | – | – | – |
| CC(=O)O[C@H]1CCC2[C@@H]3CCC4NC(=O)C(C#N)C[C@]4(C)C3CC[C@@]21C (some centres undefined) | > 10 µM | > 10 | > 10 µM | > 10 | > 10 | > 10 | > 10 | – | > 10 | > 10 | – | – | – | – | – | – | – | – | – |
| N#C/C(=C1/c2cc([N+](=O)[O-])ccc2-c2c1cc([N+](=O)[O-])cc2[N+](=O)[O-])N1CCCCC1 | – | > 100 | > 100 µM | > 100 | > 100 | > 100 | > 100 | 41.2 | > 100 | > 100 | – | – | – | – | – | – | – | – | – |
| O=NN1CCCS1(=O)=O | > 100 µM | – | > 100 µM | > 100 | > 100 | > 100 | > 100 | > 100 | > 100 | > 100 | – | – | – | – | – | – | – | – | – |
| CCC1(OC(=O)CN)C(=O)OCc2c1cc1n(c2=O)Cc2cc3cc4c(cc3nc2-1)OCO4 (centres undefined) | 0.0159 µM and 0.0389 µM | – | 0.201 µM and 0.299 µM | – | – | > 100 | – | – | – | 1.08 | < 0.01 | 0.024 µM and < 0.01 µM | 0.101 | 0.0253 µM and 0.0231 µM | < 0.01 | 0.0207 µM and < 0.01 µM | – | – | – |
| COc1cccc(NC(=O)CC(=O)N2N=C(C)C(N=Nc3ccc(C(=O)O)cc3)C2=O)c1 (centres undefined) | – | > 100 | – | > 100 | > 100 | > 100 | > 100 | 45.1 | > 100 | > 100 | – | – | – | – | – | – | – | – | – |
| NC1c2c(Cl)sc(Cl)c2C(=O)C1O (centres undefined) | > 100 µM | > 100 | > 100 µM | 51.8 | – | 66 | 47.6 | > 100 | > 100 | 30.7 | – | – | – | – | – | – | – | – | – |
| CC1(C)C=[N+]([O-])C(C)(C)N1O | > 10 µM | > 10 | > 10 µM | > 10 | > 10 | > 10 | > 10 | – | > 10 | > 10 | – | – | – | – | – | – | – | – | – |
| C[PH+](c1nc2ccccc2nc1[PH+](C)C(C)(C)C)C(C)(C)C.C[PH+](c1nc2ccccc2nc1[PH+](C)C(C)(C)C)C(C)(C)C.[Au+].[Cl-] (centres undefined) | – | 0.158 | 2.44 µM | 1.88 | 0.245 | – | 0.0961 | 1.34 | – | 0.302 | – | 0.0539 µM | 0.0296 | 0.0357 µM | – | 0.0224 µM | 0.0345 | 0.0358 | 0.0324 |
| CC1CN=C(c2ccc(CN3CCC(C4CCN(Cc5ccc(C6=NCC(C)N6)cc5)CC4)CC3)cc2)N1 (centres undefined) | 37.3 µM | 51.6 | – | > 100 | 46.2 | 37.4 | > 100 | 31.1 | 34.1 | 30.9 | – | – | – | – | – | – | – | – | – |
| COC(=O)c1cc(C)ccc1C1CN=NC12Cc1c(C)cc(C)cc1C2=O (centres undefined) | 42.7 µM | > 100 | 87.6 µM | > 100 | – | 69.1 | 69.3 | 66.8 | > 100 | 78.2 | – | – | – | – | – | – | – | – | – |
| CCOC(=O)c1c(N)sc2c1C(C(=O)OCC)CCC2 (centres undefined) | > 100 µM | – | > 100 µM | > 100 | > 100 | > 100 | > 100 | > 100 | > 100 | > 100 | – | – | – | – | – | – | – | – | – |
| COc1cccc(C23CCCC(C2)N(C)CC3OC(=O)c2ccccc2)c1OC (centres undefined) | > 100 µM | 38.4 | – | 38.7 | 55.3 | > 100 | 44.9 | – | > 100 | 78.1 | – | – | – | – | – | – | – | – | – |
| C=CCCCCn1c2ccccc2c2c(C)c3cnccc3c(C)c21 | 39.2 µM | – | 94.9 µM | 21.2 | 12.8 | 36.7 | – | 53.7 | – | 51.2 | – | – | – | – | – | – | – | – | – |
| C[C@]12CC[C@H]3[C@@H](CCC4=C(Br)C(=O)C=C[C@@]43O)[C@@H]1CCC2=O | 63.4 µM | > 100 | > 100 µM | 80.2 | > 100 | > 100 | 81.1 | – | 81.2 | – | – | – | – | – | – | – | – | – | – |
